Source: patent US11691949B2, “Quinoline sulfonamide compounds and their use as antibacterial agents” (OTAGO INNOVATION LIMITED, priority 2017, dated 2023)
≈ marks a conversion by molar mass, not a printed value. Read-outs that look alike come from different tables or passages of the source.

Key:
Assay type in all cases: cell-based
S. uberis ATCC 19436 = assay: MIC by broth microdilution, S. uberis; details: Streptococcus uberis, read-out: S. uberis ATCC 19436 MIC
Outline: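 Streptococcus uberis ATCC 19436 was tested in Todd Hewitt Broth by broth microdilution in 96-well flat bottom plates, in biological triplicate. Overnight cells were diluted to OD600 of approximately 0.025, giving about 5×10^5 cfu/mL in the wells. Compounds were serially diluted two-fold to 200 μl, incubated 24 h at 37° C. and 200 rpm, and the MIC was taken from OD600.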

S. aureus ATCC 6538 = assay: MIC by broth microdilution, S. aureus; details: Staphylococcus aureus, read-out: S. aureus ATCC 6538 MIC
Outline: (§1)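 Two-fold serial dilutions were tested in broth at ~5×10^5 cfu/mL: S. aureus in TSB or CAMHB, E. coli in LB or CAMHB, with 50 μM zinc sulphate added as required. After 24 h at 37° C, 200 rpm, MIC was the lowest concentration showing no growth by OD600.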

E. coli ATCC 10596 = assay: MIC by broth microdilution, E. coli; details: Escherichia coli, read-out: E. coli ATCC 10536 MIC
Outline: as §1

[1] = ATCC 10536 / ATCC 10596, No Zinc
[2] = ATCC 10536 / ATCC 10596, Zinc (50 μM)

Compound `CN(C)Cc1ccc2cccc(NS(=O)(=O)c3ccc([N+](=O)[O-])cc3)c2n1` [ZDR067, N-(2-((Dimethylamino)methyl)quinolin-8-yl)-4-nitrobenzenesulfonamide] has an MIC (S. uberis ATCC 19436; ATCC19436, No Zinc) of 128 µg/mL (≈ 331 µM), an MIC (S. uberis ATCC 19436; ATCC19436, Zinc (50 μM)) of 0.125 µg/mL (≈ 0.323 µM) and an MIC (S. aureus ATCC 6538; ATCC6538, No Zinc) of 128 µg/mL (≈ 331 µM). The MIC (S. aureus ATCC 6538; ATCC6538, Zinc (50 μM)) was 256 µg/mL (≈ 662 µM), the MIC (E. coli ATCC 10596; [1]) was over 256 µg/mL and the MIC (E. coli ATCC 10596; [2]) was over 256 µg/mL.
With `CC(=O)Nc1cccc(S(=O)(=O)Nc2cccc3ccc(CN(C)C)nc23)c1` [ZDR327, N-(3-(N-(2-((Dimethylamino)methyl)quinolin-8-yl)sulfamoyl)phenyl)acetamide] the MIC (S. uberis ATCC 19436; ATCC19436, No Zinc) was 256 µg/mL (≈ 642 µM), the MIC (S. uberis ATCC 19436; ATCC19436, Zinc (50 μM)) was 8 µg/mL (≈ 20.1 µM) and the MIC (S. aureus ATCC 6538; ATCC6538, No Zinc) was over 256 µg/mL. The MIC (S. aureus ATCC 6538; ATCC6538, Zinc (50 μM)) was over 256 µg/mL, the MIC (E. coli ATCC 10596; [1]) was over 256 µg/mL and the MIC (E. coli ATCC 10596; [2]) was over 256 µg/mL.
`CCCNCc1ccc2cccc(NS(=O)(=O)c3ccc(C(F)(F)F)cc3)c2n1` [ZDR026, N-(2-((Propylamino)methyl)quinolin-8-yl)-4-(trifluoromethyl)-benzenesulfonamide] showed an MIC (S. uberis ATCC 19436; ATCC19436, No Zinc) of 64 µg/mL (≈ 151 µM), an MIC (S. uberis ATCC 19436; ATCC19436, Zinc (50 μM)) of 0.125 µg/mL (≈ 0.295 µM) and an MIC (S. aureus ATCC 6538; ATCC6538, No Zinc) of 32 µg/mL (≈ 75.6 µM). For the same compound, the MIC (S. aureus ATCC 6538; ATCC6538, Zinc (50 μM)) was over 256 µg/mL, the MIC (E. coli ATCC 10596; [1]) was over 256 µg/mL and the MIC (E. coli ATCC 10596; [2]) was over 256 µg/mL.
`CN(C)Cc1ccc2cccc(NS(=O)(=O)c3ccc(C(F)(F)F)cc3)c2n1` [ZDR022, N-(2-((Dimethylamino)methyl)quinolin-8-yl)-4-(trifluoromethyl)-benzenesulfonamide] was tested, and the MIC (S. uberis ATCC 19436; ATCC19436, No Zinc) was 64 µg/mL (≈ 156 µM), the MIC (S. uberis ATCC 19436; ATCC19436, Zinc (50 μM)) was 0.125 µg/mL (≈ 0.305 µM) and the MIC (S. aureus ATCC 6538; ATCC6538, No Zinc) was 16 µg/mL (≈ 39.1 µM). The MIC (S. aureus ATCC 6538; ATCC6538, Zinc (50 μM)) was 8 µg/mL (≈ 19.5 µM), the MIC (E. coli ATCC 10596; [1]) was over 256 µg/mL and the MIC (E. coli ATCC 10596; [2]) was over 256 µg/mL.
`CC(=O)c1cccc(S(=O)(=O)Nc2cccc3ccc(CN(C)C)nc23)c1` [ZDR311, 3-Acetyl-N-(2-((dimethylamino)methyl)quinolin-8-yl)benzenesulfonamide] was tested, and the MIC (S. uberis ATCC 19436; ATCC19436, No Zinc) was 256 µg/mL (≈ 668 µM), the MIC (S. uberis ATCC 19436; ATCC19436, Zinc (50 μM)) was 0.0625 µg/mL (≈ 0.163 µM) and the MIC (S. aureus ATCC 6538; ATCC6538, No Zinc) was over 256 µg/mL. For the same compound, the MIC (S. aureus ATCC 6538; ATCC6538, Zinc (50 μM)) was 256 µg/mL (≈ 668 µM), the MIC (E. coli ATCC 10596; [1]) was over 256 µg/mL and the MIC (E. coli ATCC 10596; [2]) was over 256 µg/mL.
`O=S(=O)(Nc1cccc2ccc(CN3CCOCC3)nc12)c1ccc(C(F)(F)F)cc1` [ZDR029, N-(2-((Morpholin-4-yl)methyl)quinolin-8-yl)-4-(trifluoromethyl)-benzenesulfonamide] was tested, and the MIC (S. uberis ATCC 19436; ATCC19436, No Zinc) was over 256 µg/mL, the MIC (S. uberis ATCC 19436; ATCC19436, Zinc (50 μM)) was 0.25 µg/mL (≈ 0.554 µM) and the MIC (S. aureus ATCC 6538; ATCC6538, No Zinc) was over 256 µg/mL. For the same compound, the MIC (S. aureus ATCC 6538; ATCC6538, Zinc (50 μM)) was over 256 µg/mL, the MIC (E. coli ATCC 10596; [1]) was over 256 µg/mL and the MIC (E. coli ATCC 10596; [2]) was over 256 µg/mL.
Compound `CN(C)Cc1ccc2cccc(NS(=O)(=O)c3cccc(C#N)c3)c2n1` [ZDR076, 3-cyano-N-(2-((dimethylamino)methyl)quinolin-8-yl)benzenesulfonamide] has an MIC (S. uberis ATCC 19436; ATCC19436, No Zinc) of over 256 µg/mL, an MIC (S. uberis ATCC 19436; ATCC19436, Zinc (50 μM)) of 1 µg/mL (≈ 2.73 µM) and an MIC (S. aureus ATCC 6538; ATCC6538, No Zinc) of over 256 µg/mL. For the same compound, the MIC (S. aureus ATCC 6538; ATCC6538, Zinc (50 μM)) was over 256 µg/mL, the MIC (E. coli ATCC 10596; [1]) was over 256 µg/mL and the MIC (E. coli ATCC 10596; [2]) was over 256 µg/mL.
Compound `CCCCNCc1ccc2cccc(NS(=O)(=O)c3ccc(C(F)(F)F)cc3)c2n1` [ZDR401, N-(2-((Butylamino)methyl)quinolin-8-yl)-4-(trifluoromethyl)benzenesulfonamide] has an MIC (S. uberis ATCC 19436; ATCC19436, No Zinc) of 16 µg/mL (≈ 36.6 µM), an MIC (S. uberis ATCC 19436; ATCC19436, Zinc (50 μM)) of 0.125 µg/mL (≈ 0.286 µM) and an MIC (S. aureus ATCC 6538; ATCC6538, No Zinc) of 32 µg/mL (≈ 73.1 µM). It also gave an MIC (S. aureus ATCC 6538; ATCC6538, Zinc (50 μM)) of 128 µg/mL (≈ 293 µM), an MIC (E. coli ATCC 10596; [1]) of 64 µg/mL (≈ 146 µM) and an MIC (E. coli ATCC 10596; [2]) of over 256 µg/mL.
Compound `O=S(=O)(Nc1cccc2ccc(CNCCF)nc12)c1ccc(C(F)(F)F)cc1` [ZDR099, N-(2-(((2-Fluoroethyl)amino)methyl)quinolin-8-yl)-4-(trifluoromethyl)benzenesulfonamide] has an MIC (S. uberis ATCC 19436; ATCC19436, No Zinc) of 64 µg/mL (≈ 150 µM), an MIC (S. uberis ATCC 19436; ATCC19436, Zinc (50 μM)) of 0.25 µg/mL (≈ 0.585 µM) and an MIC (S. aureus ATCC 6538; ATCC6538, No Zinc) of 64 µg/mL (≈ 150 µM). The MIC (S. aureus ATCC 6538; ATCC6538, Zinc (50 μM)) was over 256 µg/mL, the MIC (E. coli ATCC 10596; [1]) was over 256 µg/mL and the MIC (E. coli ATCC 10596; [2]) was 256 µg/mL (≈ 599 µM).
`CN(C)Cc1ccc2cccc(NS(=O)(=O)c3cccc(S(C)(=O)=O)c3)c2n1` [ZDR310, N-(2-((Dimethylamino)methyl)quinolin-8-yl)-3-(methylsulfonyl)benzenesulfonamide] was tested, and the MIC (S. uberis ATCC 19436; ATCC19436, No Zinc) was 256 µg/mL (≈ 610 µM), the MIC (S. uberis ATCC 19436; ATCC19436, Zinc (50 μM)) was 4 µg/mL (≈ 9.53 µM) and the MIC (S. aureus ATCC 6538; ATCC6538, No Zinc) was over 256 µg/mL. The MIC (S. aureus ATCC 6538; ATCC6538, Zinc (50 μM)) was over 256 µg/mL, the MIC (E. coli ATCC 10596; [1]) was over 256 µg/mL and the MIC (E. coli ATCC 10596; [2]) was over 256 µg/mL.
`O=S(=O)(Nc1cccc2ccc(CNC3CCCC3)nc12)c1ccc(C(F)(F)F)cc1` [ZDR404, N-(2-((Cyclopentylamino)methyl)quinolin-8-yl)-4-(trifluoromethyl)benzenesulfonamide] gave an MIC (S. uberis ATCC 19436; ATCC19436, No Zinc) of 16 µg/mL (≈ 35.6 µM), an MIC (S. uberis ATCC 19436; ATCC19436, Zinc (50 μM)) of 0.125 µg/mL (≈ 0.278 µM) and an MIC (S. aureus ATCC 6538; ATCC6538, No Zinc) of 32 µg/mL (≈ 71.2 µM). For the same compound, the MIC (S. aureus ATCC 6538; ATCC6538, Zinc (50 μM)) was 256 µg/mL (≈ 570 µM), the MIC (E. coli ATCC 10596; [1]) was 128 µg/mL (≈ 285 µM) and the MIC (E. coli ATCC 10596; [2]) was over 256 µg/mL.
For `CN(C)Cc1ccc2cccc(NS(=O)(=O)c3cccc(OC(F)(F)F)c3)c2n1` [ZDR085, N-(2-((Dimethylamino)methyl)quinolin-8-yl)-3-(trifluoromethoxy)benzenesulfonamide], the MIC (S. uberis ATCC 19436; ATCC19436, No Zinc) was 128 µg/mL (≈ 301 µM), the MIC (S. uberis ATCC 19436; ATCC19436, Zinc (50 μM)) was under 0.125 µg/mL and the MIC (S. aureus ATCC 6538; ATCC6538, No Zinc) was 256 µg/mL (≈ 602 µM). It also gave an MIC (S. aureus ATCC 6538; ATCC6538, Zinc (50 μM)) of over 256 µg/mL, an MIC (E. coli ATCC 10596; [1]) of 256 µg/mL (≈ 602 µM) and an MIC (E. coli ATCC 10596; [2]) of over 256 µg/mL.
`CC(C)N(Cc1ccc2cccc(NS(=O)(=O)c3ccc(C(F)(F)F)cc3)c2n1)C(C)C` [ZDR136, N-(2-((Diisopropylamino)methyl)quinolin-8-yl)-4-(trifluoromethyl)benzenesulfonamide] was tested, and the MIC (S. uberis ATCC 19436; ATCC19436, No Zinc) was over 256 µg/mL, the MIC (S. uberis ATCC 19436; ATCC19436, Zinc (50 μM)) was 8 µg/mL (≈ 17.2 µM) and the MIC (S. aureus ATCC 6538; ATCC6538, No Zinc) was over 256 µg/mL. It also gave an MIC (S. aureus ATCC 6538; ATCC6538, Zinc (50 μM)) of over 256 µg/mL, an MIC (E. coli ATCC 10596; [1]) of over 256 µg/mL and an MIC (E. coli ATCC 10596; [2]) of over 256 µg/mL.
